Here are results for 2 compounds from publication PMC5829251, “NAD^+ analog reveals PARP-1 substrate-blocking mechanism and allosteric communication from catalytic center to DNA-binding domains” (Nature Communications, 2018).

Common to all, as to assay type: binding
One experiment addresses T1, PARP-1 W246A (Homo sapiens, UniProt P09874, W246A).
T1 construct: Full-length PARP-1 WT (residues 1–1014) was cloned in pET28 vector and site-directed mutagenesis was performed; made in house; host or cells: E. coli
Description: DSF, full-length PARP-1 W246A with or without DNA. The conditions noted are these: for TM: Figure 3b, BAD 1250 μM, in °C (unit assumed). The method, then: (§1) DSF experiments were performed as described, [13] using 5 µM protein, 2.5 µM DNA when indicated and various concentrations of compound (BAD, carba-NAD^+, benzamide, and ADP-ribose) as indicated in Fig. 1 and Fig. 3. Experiments were performed on a Roche LightCycler 480 RT-PCR. Reactions including DNA were performed with a 26- or 28-base pair (bp) unphosphorylated oligonucleotide for PARP-1, a 28-bp 5´-phosphorylated (5´P) oligonucleotide for PARP-2, and a 47-bp oligonucleotide including a central 5´P nick for PARP-3^13 in the following buffer: 25 mM Hepes pH 8.0, 150 mM NaCl, 1 mM EDTA, and 0.1 mM TCEP. Reactions with PARP-3 were conducted at lower ionic strength to allow binding to DNA as described (25 mM Hepes pH 8.0, 50 mM NaCl, 1 mM EDTA and 0.1 mM TCEP)[13]. ΔTM values were calculated by subtracting the TM determined for the protein in the absence of compound from the TM determined in the presence of compound. Experiments were performed in triplicate and a Boltzmann sigmoid was fit to the data to determine the TM values (KaleidaGraph).
Background: In DSF a fluorescence change marks the thermal transition of the protein.

Experiment [1] concerns the target T2, PARP-1 CAT ΔHD (Homo sapiens, UniProt P09874).
T2 construct: a pET28 construct coding for PARP-1 residues 661-1011; made in house; host or cells: E. coli
Description: ITC, PARP-1 CAT ΔHD. The settings on record: for n (stoichiometry): CAT ΔHD; for Kd: CAT ΔHD 50 μM, compound 525 μM titrated, 25°C. The method, then:
(§2) ITC experiments were performed using a MicroCal iTC200 calorimeter (GE Healthcare). BAD or benzamide at 525 μM was titrated into PARP-1 protein (50 μM for CAT WT and CAT ΔHD, 40 μM for full-length PARP-1 WT and mutants) or PARP-1 protein with DNA (20–40 μM) at 25°C. Prior to the experiment, proteins and DNA were dialyzed in 25 mM Hepes pH 8.0, 150 mM NaCl, 1 mM EDTA, and 0.1 mM TCEP. BAD and benzamide were diluted in the dialysis buffer. PARP-1/DNA complexes were assembled and incubated at RT for 30 min prior to performing the experiment. Experiments were typically designed as follows: a first injection of 0.2 μL was followed by 16 injections of 2.5 μL with a spacing of 100 s between injections. Excess heat upon each injection was integrated using an automatically adjusted base line and derived values corrected by heat of dilution. Data analysis and curve fitting were conducted using Origin 7 software. The ITC experiment for each sample was performed either two (PARP-1 WT with benzamide, PARP-1 E763/D766/D770A with benzamide, PARP-1 D766/D770A with BAD) or three times (the remaining eight samples). Table 2 lists the average KD value and stoichiometry (n) for the replicates, and the reported errors are the calculated standard deviations (representing the range of values for experiments repeated two times). We anticipate that the sub-stoichiometric n values for CAT constructs results from either the active fraction being < 100%, or the protein concentration determination being not entirely accurate. The analysis of full-length PARP-1 yielded n values around the expected value of 1.

The target in another experiment is T3, PARP-1 D45A (Homo sapiens, UniProt P09874, D45A).
T3 construct: Full-length PARP-1 WT (residues 1–1014) was cloned in pET28 vector and site-directed mutagenesis was performed; made in house; host or cells: E. coli
Kind of experiment: DSF, full-length PARP-1 D45A with or without DNA. The conditions noted are these: for TM: Figure 3b, BAD 1250 μM, in °C (unit assumed). The method, then:
as §1

Another experiment addresses T4, full-length PARP-1 WT (Homo sapiens, UniProt P09874).
T4 construct: Full-length PARP-1 WT (residues 1–1014) was cloned in pET28 vector; made in house; host or cells: E. coli
Kind of experiment: ITC, full-length PARP-1 WT with or without DNA. The conditions noted are these: for KD / Kd: compound 525 μM titrated, 25°C. The protocol: as §2
A general note: In ITC the heat of successive injections is recorded.

Experiment [2] concerns the target T5, full-length PARP-1 E763/D766/D770A (Homo sapiens, UniProt P09874, D766A/D770A/E763A).
T5 construct: Full-length PARP-1 WT (residues 1–1014) was cloned in pET28 vector and site-directed mutagenesis was performed; made in house; host or cells: E. coli
Kind of experiment: ITC, full-length PARP-1 E763/D766/D770A. The conditions noted are these: for n (stoichiometry): FL E763/D766/D770A; for KD / Kd: FL E763/D766/D770A 40 μM, without DNA, compound 525 μM titrated, 25°C. The method, then: as §2

The target in another experiment is T6, PARP-1 CAT WT (Homo sapiens, UniProt P09874).
T6 construct: The PARP-1 CAT WT (residues 661–1014) was cloned in pET28 vector; made in house; host or cells: E. coli
Description: Isothermal titration calorimetry (ITC), PARP-1 CAT WT. The method, then:
as §2

For experiment [3], the target named is T2, PARP-1 CAT ΔHD. Description: DSF, PARP-1 CAT ΔHD. The conditions noted are these: for TM: CAT ΔHD 5 μM, in °C (unit assumed). The protocol: as §1
The target of experiment [4] is T7, PARP-1 double mutant D766/D770A (Homo sapiens, UniProt P09874, D766A/D770A).
T7 construct: Full-length PARP-1 WT (residues 1–1014) was cloned in pET28 vector and site-directed mutagenesis was performed; made in house; host or cells: E. coli
Description: DSF, full-length PARP-1 D766/D770A. The settings on record: BAD 1250 μM. The protocol:
as §1

Setting [5] is: CAT WT 50 μM, compound 525 μM titrated, 25°C.
The mark [6] stands for this setting: Figure 1e, compound 25 µM, TM without compound 41.26.
Setting [7] is: Figure 1e, compound 150 µM, TM without compound 41.26.
The mark [8] stands for this setting: Figure 1e, compound 750 µM, TM without compound 41.26.
[9] abbreviates: Figure 1e, compound 1500 µM, TM without compound 41.26.

Structures are written as SMILES. Values joined by “and” are separate entries in the source; they are usually repeats but may differ in a detail not shown here. Equal entries are not always repeated. “Also recorded” adds a separate entry of the source.

T3 sequence (P09874 whole entry D45A, the tested form may be a part): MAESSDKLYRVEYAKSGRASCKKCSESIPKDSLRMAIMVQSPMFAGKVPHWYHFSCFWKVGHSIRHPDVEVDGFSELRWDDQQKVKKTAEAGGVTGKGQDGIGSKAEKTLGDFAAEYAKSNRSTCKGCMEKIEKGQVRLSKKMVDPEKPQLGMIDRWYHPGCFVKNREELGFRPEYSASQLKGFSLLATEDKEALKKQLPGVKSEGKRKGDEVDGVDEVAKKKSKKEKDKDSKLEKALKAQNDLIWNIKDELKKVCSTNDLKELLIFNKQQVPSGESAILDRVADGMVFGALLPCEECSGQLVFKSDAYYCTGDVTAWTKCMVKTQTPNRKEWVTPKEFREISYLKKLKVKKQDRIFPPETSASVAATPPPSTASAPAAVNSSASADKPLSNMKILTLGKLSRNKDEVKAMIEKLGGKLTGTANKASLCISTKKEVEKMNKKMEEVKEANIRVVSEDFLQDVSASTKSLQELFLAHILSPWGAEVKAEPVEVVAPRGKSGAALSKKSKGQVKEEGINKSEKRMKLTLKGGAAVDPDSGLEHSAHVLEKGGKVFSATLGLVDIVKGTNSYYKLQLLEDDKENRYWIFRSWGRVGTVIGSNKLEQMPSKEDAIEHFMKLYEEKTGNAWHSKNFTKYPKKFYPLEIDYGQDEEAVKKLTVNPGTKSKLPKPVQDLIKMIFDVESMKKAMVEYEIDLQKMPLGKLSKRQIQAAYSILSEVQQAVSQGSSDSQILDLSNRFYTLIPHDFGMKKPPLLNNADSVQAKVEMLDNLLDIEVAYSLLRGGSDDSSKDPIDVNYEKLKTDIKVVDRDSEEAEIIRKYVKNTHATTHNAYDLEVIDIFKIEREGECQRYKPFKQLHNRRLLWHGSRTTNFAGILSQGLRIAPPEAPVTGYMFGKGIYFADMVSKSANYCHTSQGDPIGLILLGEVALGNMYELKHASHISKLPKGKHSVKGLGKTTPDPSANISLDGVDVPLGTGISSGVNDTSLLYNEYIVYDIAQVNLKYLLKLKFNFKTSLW
T6 sequence (P09874 661-1014): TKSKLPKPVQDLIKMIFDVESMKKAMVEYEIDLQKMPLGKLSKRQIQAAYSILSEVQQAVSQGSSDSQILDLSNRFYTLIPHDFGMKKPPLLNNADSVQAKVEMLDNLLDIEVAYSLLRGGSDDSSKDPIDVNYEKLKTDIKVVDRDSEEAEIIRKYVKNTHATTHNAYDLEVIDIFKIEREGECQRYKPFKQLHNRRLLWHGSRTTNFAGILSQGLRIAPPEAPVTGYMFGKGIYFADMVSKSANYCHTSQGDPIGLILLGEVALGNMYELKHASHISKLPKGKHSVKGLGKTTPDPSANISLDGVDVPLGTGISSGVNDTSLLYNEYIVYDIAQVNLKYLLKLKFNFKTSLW
T4 sequence (P09874 whole entry, the tested form may be a part): as the sequence (P09874 whole entry D45A, the tested form may be a part) above, with A45D counted along it
T5 sequence (P09874 whole entry E763A/D766A/D770A, the tested form may be a part): as the sequence (P09874 whole entry D45A, the tested form may be a part) above, with A45D, E763A, D766A, D770A counted along it
T1 sequence (P09874 whole entry W246A, the tested form may be a part): as the sequence (P09874 whole entry D45A, the tested form may be a part) above, with A45D, W246A counted along it
T2 sequence (P09874 with tags, fused parts or gaps): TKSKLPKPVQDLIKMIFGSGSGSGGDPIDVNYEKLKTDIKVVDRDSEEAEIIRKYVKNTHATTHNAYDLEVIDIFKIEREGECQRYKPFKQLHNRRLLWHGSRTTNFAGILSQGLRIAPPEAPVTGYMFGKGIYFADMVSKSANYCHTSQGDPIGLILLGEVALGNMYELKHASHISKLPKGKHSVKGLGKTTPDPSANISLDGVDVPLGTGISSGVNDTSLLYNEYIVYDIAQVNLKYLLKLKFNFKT
T7 sequence (P09874 whole entry D766A/D770A, the tested form may be a part): as the sequence (P09874 whole entry D45A, the tested form may be a part) above, with A45D, D766A, D770A counted along it

Consider `NC(=O)c1cccc(C2OC(COP(=O)(O)OP(=O)(O)OCC3OC(n4cnc5c(N)ncnc54)C(O)C3O)C(O)C2O)c1` (centres unmarked) [BAD, benzamide adenine dinucleotide], for which the TM at PARP-1 W246A (W246A with DNA (2.5 μM), TM without BAD 47.45) came out at 47.41; on PARP-1 W246A (W246A, no DNA, TM without BAD 47.24) it was 47.23; at PARP-1 D45A (D45A with DNA (2.5 μM), TM without BAD 46.77), 46.61; at PARP-1 D45A (D45A, no DNA, TM without BAD 46.20), 46.68; at PARP-1 CAT ΔHD [3] (setting [6]), 45.52; on PARP-1 CAT ΔHD [3] (setting [7]) it was 48.60. For the same compound, the TM at PARP-1 CAT ΔHD [3] (setting [8]) is 49.27; on PARP-1 CAT ΔHD [3] (setting [9]), 51.95; on PARP-1 CAT ΔHD [3] (Figure 1d, compound 50 µM, TM without compound 41.76), 47.02; on PARP-1 CAT ΔHD [3] (Figure 1d, compound 250 µM, TM without compound 41.76), 49.58; on PARP-1 CAT ΔHD [3] (Figure 1d, compound 1250 µM, TM without compound 41.76) it was 51.91; in experiment [4] (Figure 3a, no DNA, TM without BAD 45.94), 48.5 °C. In addition, the “TM shift in the presence of BAD and DNA” value on PARP-1 W246A (W246A (Zn1–Zn3 interface mutation), relative to WT) is “substantial reduction in TM shift”; on PARP-1 D45A (D45A (Zn1–WGR interface mutation), relative to WT), “substantial reduction in TM shift”. The “n (stoichiometry)” value on PARP-1 CAT ΔHD [1] was 0.63 + /− 0.09; on full-length PARP-1 WT (FL WT with DNA), 1.11 + /− 0.29; in experiment [2], 1.00 + /− 0.13. Also, the equilibrium dissociation constant (Kd) (as a rule, the constant that tells how readily two partners part at equilibrium) at PARP-1 CAT ΔHD [1] was 5870 nM; at full-length PARP-1 WT (FL WT with DNA (40 μM, 8 bp-duplex)) it was 1800 nM and 1810 nM; in experiment [2], 380 nM. Also, the KD result is given as “no evidence of BAD binding” on full-length PARP-1 WT (FL WT 40 μM, without DNA); “showed evidence of binding” in experiment [2]; “no measureable heat exchange; also recorded: No binding” at PARP-1 CAT WT (setting [5]). Moreover, the “calculated KD for BAD lower than observed for all other proteins” value in experiment [2] (E763/D766/D770A versus all other proteins) is reported as “about 10 fold”. Also, on PARP-1 CAT ΔHD [3] (at the highest concentration, 5 μM protein), the “TM increase (ΔTM) of CAT ΔHD” value worked out at 10 °C. For the same compound, the “TM change in the presence of BAD” value in experiment [4] (did not require the presence of DNA) was “increase in TM”.
Consider `NC(=O)c1ccccc1` [benzamide], for which the “n (stoichiometry)” value is given as 0.39 + /− 0.01 at PARP-1 CAT ΔHD [1]; 0.88 + /− 0.01 at full-length PARP-1 WT (FL WT, without DNA); 0.89 + /− 0.07 in experiment [2]; 0.49 + /− 0.02 at PARP-1 CAT WT (CAT WT). The Kd on PARP-1 CAT ΔHD [1] came to 3210 nM; at full-length PARP-1 WT (FL WT 40 μM, without DNA), 2320 nM; in experiment [2], 2990 nM; at PARP-1 CAT WT (setting [5]), 3.79 µM. In addition, the KD entry on full-length PARP-1 WT (FL WT 40 μM, without DNA) was “bound to benzamide in the absence of DNA”; in experiment [2] it was “also bound to benzamide similarly”. Besides, the “change of TM of CAT ΔHD (evidence of binding)” value at PARP-1 CAT ΔHD [3] (5 μM protein, various amounts of compound) was “increased the TM”. Moreover, the TM turned out to be 43.73 at PARP-1 CAT ΔHD [3] (setting [6]), 46.20 on PARP-1 CAT ΔHD [3] (setting [7]), 46.99 at PARP-1 CAT ΔHD [3] (setting [8]) and 49.98 at PARP-1 CAT ΔHD [3] (setting [9]).
